Paper PMC11343376, “In vivo pharmacokinetics of ginsenoside compound K mediated by gut microbiota” (PLOS ONE, 2024)
Like-named read-outs stand apart in the source and are kept apart here. Blank lines part the entries; values can stand above or below the compound they belong to.

What was measured:
[1] = Pharmacokinetics of GCK in SPF and pseudo-GF rats after single oral administration (LC-MS/MS of plasma); assay type: in vivo, Sprague-Dawley (SD) rats; details: for AUC(0-inf) / Tmax / half-life / AUC(0-t) / CL/F / MRT last / Vd/F / Cmax: Sprague-Dawley, rat, plasma, po, 22.5 mg/kg, GCK 22.5 mg/kg single oral dose; for AUC(0-t): read-out: AUC (0–11); for CL/F: read-out: CLz/F (converted); for MRT last: read-out: MRT(0–11); for Vd/F: read-out: Vz/F; for Cmax: rat plasma, n = 7, mean ± SD
Procedure: SD rats were randomly divided into two groups: normal control group (SPF group, n = 7) and pseudo-GF group (n = 7). To deplete the gut microbiota, a solution of ampicillin (50 mg/kg), vancomycin (25 mg/kg), neomycin sulfate (50 mg/kg), and metronidazole (50 mg/kg) were orally administered. Fresh antibiotic concoction with fed ampicillin in water (0.25 g/L) were prepared every day for a week. The feces were collected three days after withdrawal, and then the gut bacterial DNA was extracted with a stool DNA kit (Omega, D4015-01) and measured by Nonodrop 3000 spectrophotometer (Shimadzu, Japan).
The mass spectrometer analysis was performed on QTRAP 6500^+ low mass spectrometers. The Phenomenex LUNA C18 (2) Reversed Phase (Phenomenex, 150 × 2.0 mm, i.d., 5 μm) was used for the chromatographic separation with a mobile phase of acetonitrile (A) and the aqueous phase of 2 mM ammonium acetate (B) at a flow rate of 0.3 mL/min. The gradient elution procedure was set at 0−2 min: 20%A, 2−3 min: 20−65%A, 3−4 min: 65−75%A, 4−5 min: 75−90%A, 5−6 min: 90−100%A, and the re-equilibration time was set for 5 mins with 20%A after gradient elution. The tailing factors under the selected chromatographic conditions were calculated as 0.993 and 0.996 for GCK and PPD, respectively, while the theoretical plates were measured as 1.13 × 10^4. The injection volume was 10 μL with the temperature of column at 40°C. The mass spectrometer parameters were optimized as follow, Curtain Gas (CUR), 35; collision gas, 9;, ionspray voltage,-4500 V; temperature, 450°C; curtain gas, 35 psi; ion source gas 1, 50 psi; ion source gas 2, 55 psi. Both GCK and PPD were analyzed in multiple reaction monitoring (MRM) mode, shown as Fig 1.
After fasted for 12 h, all animals were once orally administrated with a medium dose of GCK (22.5 mg/kg) in 0.9% normal saline. Blood samples were collected from the tail vein at 0 h, 0.5 h, 1 h, 1.5 h, 2.5 h, 3 h, 3.5 h, 4 h, 5 h, 6 h, 7 h, 9.5 h, and 11 h after oral administration. All blood samples were immediately centrifuged at 4000 rpm for 20 min at 4°C. Approximate 100 μL of supernatant was collected and stored at -80°C for analysis. Non-compartmental model analysis was operated on DAS 2.0 software of the Chinese Pharmacological Society, and pharmacokinetic parameters were calculated accordingly.
The blood samples (50 μL) were mixed with 150 μL of digoxin solution (Internal standard (IS), 3.33 ng/mL), subsequently vortex-mixed and centrifuged at 1.4 × 10^4 rpm (4°C) to remove the precipitated proteins for 10 min, respectively. Finally, 100 μL of supernatant was subjected to LC-MS/ MS analysis.
Pharmacokinetics parameters including AUC, terminal elimination half-life (T1/2), mean retention time (MRT), apparent distribution volume (Vz/ F), and clearance rate (CL) were calculated using non-compartmental model analysis (DAS 2.0 software, Chinese Pharmacological Association, China). Other parameters, such as maximum plasma concentration (Cmax) and time to maximum plasma concentration (Tmax), were obtained directly from the plasma concentration-time diagram. All data were expressed as mean ± SD. Significant differences were marked by the symbols ** p < 0.01, *** p < 0.001, and **** p < 0.0001.

[2] = Freeze/thaw and long-term stability of QC samples in rat plasma; assay type: physicochemical; details: n = 6; for Freeze/thaw stability Accuracy: frozen –80°C / thawed 25°C three cycles; for long-term stability Accuracy: –80°C for thirty days
Procedure: The LQC, MQC, and HQC samples were stored at –80°C for thirty days. The employed samples were tested to assess long-term stability. Six replicates of all QC samples were frozen at –80°C and thawed at 25°C for three cycles, which were then determined to assess the freeze/thaw cycle stability. The variabilities of precision and accuracy should be within15%.

[3] = design: method as in PMID 28955238; details: human plasma, single dose of oral GCK; ref [14]; cited from earlier work
[4] = high QC (GCK 552, PPD 456 ng/mL)
[5] = low QC (GCK 10.8, PPD 8.91 ng/mL)
[6] = middle QC (GCK 86.3, PPD 71.3 ng/mL)
[7] = pseudo-GF rats compared with SPF rats

SMILES: CC(C)=CCC[C@](C)(O)[C@H]1CC[C@]2(C)[C@@H]1[C@H](O)C[C@@H]1[C@@]3(C)CC[C@H](O)C(C)(C)[C@@H]3CC[C@]12C [PPD, protopanaxadiol]
Detection of the metabolite PPD in rat plasma ([1]; after single oral GCK 22.5 mg/kg, both SPF and pseudo-GF groups, LLOQ 4.45 ng/mL): not detected | Freeze/thaw stability Accuracy [2, 4]: 89.65% | Freeze/thaw stability Accuracy [2, 5]: 92.44% | Freeze/thaw stability Accuracy [2, 6]: 93.50% | long-term stability Accuracy [2, 4]: 101.93% | long-term stability Accuracy [2, 5]: 96.17% | long-term stability Accuracy [2, 6]: 97.83% | Cmax of PPD [3]: ~4.2 ng/mL | T1/2 of PPD [3]: more than 19 hours | Tmax of PPD [3]: ~25 h

AUC(0-inf) ([1]; SPF group): 679 ± 284 ng·h/mL | Tmax ([1]; SPF group): 3.36 ± 1.25 h | half-life ([1]; SPF group): 2.2 ± 1.69 h | AUC(0-t) ([1]; SPF group): 586 ± 161 ng·h/mL | CL/F ([1]; SPF group): 632 mL/min/kg | MRT last ([1]; SPF group): 4.16 ± 1.11 h | Vd/F ([1]; SPF group): 96.5 ± 44.9 L/kg | Cmax ([1]; SPF group): 162 ± 46.9 ng/mL | AUC(0-inf) ([1]; pseudo-GF group): 2300 ± 1630 ng·h/mL | Tmax ([1]; pseudo-GF group): 5.86 ± 1.35 h | half-life ([1]; pseudo-GF group): 3.93 ± 1.65 h | AUC(0-t) ([1]; pseudo-GF group): 1340 ± 402 ng·h/mL | CL/F ([1]; pseudo-GF group): 226 mL/min/kg | MRT last ([1]; pseudo-GF group): 6.05 ± 0.42 h | Vd/F ([1]; pseudo-GF group): 63.2 ± 15.4 L/kg | Cmax ([1]; pseudo-GF group): 259 ± 70 ng/mL | AUC increased ([1]; pseudo-GF group compared with SPF group): approximately twice | AUC 0–11 increased by [1, 7]: 1.3 times | Cmax times higher than that of SPF rats [1, 7]: 1.6 times | CLz/F decreased by ([1]; pseudo-GF rats compared with SPF rats, P <0.01): 0.6 times | Freeze/thaw stability Accuracy [2, 4]: 104.11% | Freeze/thaw stability Accuracy [2, 5]: 102.76% | Freeze/thaw stability Accuracy [2, 6]: 106.47% | long-term stability Accuracy [2, 4]: 103.91% | long-term stability Accuracy [2, 5]: 95.56% | long-term stability Accuracy [2, 6]: 103.32%
SMILES: CC(C)=CCCC(C)(OC1OC(CO)C(O)C(O)C1O)C1CCC2(C)C1C(O)CC1C3(C)CCC(O)C(C)(C)C3CCC12C (stereo not drawn) [GCK, Ginsenoside Compound K]
